Data published in patent US9995734B2, “Human T cell line assay for evaluating the immunologic identity of glatiramer acetate preparations” (Mylan Inc., priority 2013, dated 2018).

Test system: Donor 1 COP T-Cell Lines
Assay: Multiplex bead cytokine assay (FlowCytoMix), Donor 1 COP T-cell lines
Assay type: cell-based, human
Procedure: Culture medium was removed from cultures prepared as for proliferation assay and utilized to measure cytokine production. In most cases culture medium was collected 18-24 hours after mixing T-cells, APC, and stimulating antigen. Cytokine production was measured by ELISA or bead assay. For measuring cytokine production, 100-150 μL culture medium (100 μL if culture was to be continued, otherwise 150 μL) was removed from each well. In some cases, the culture was continued 48 hours, for a total of 72 hours of culture, and the proliferative response measured.
The concentration of multiple cytokines was measured simultaneously using FlowCytoMix™ kits (eBioscience, San Diego Calif.). These are fluorescent bead based assays consisting of beads conjugated to anti cytokine antibodies. Beads specific for each cytokine are distinguished by size and fluorescence at 670 run. Cytokine bound to each bead is detected using a phycoerythrin conjugated antibody so that the fluorescence at 585 nm reflects the concentration of cytokine in the sample. Two kits were utilized which measured different cytokine panels. The TH1/TH2 kit measures IFN-γ, IL-1β, IL-2, IL-4, IL-5, IL-6, IL-8, IL-10, IL-12p70, TNF-α (TNF) and TNF-β (LT). The TH1/TH2/TH9/TH17/TH22 kit measures […], IL-1β, IL-2, IL-4, IL-5, IL-6, IL-9, IL-10, IL-12p70, IL-13, IL-17, IL-22, and TNF-α (TNF). Both kits were used following the manufacturer's instructions.
IL-12p70, IFN-γ, IL-2, IL-10, IL-8, IL-6, IL-5, IL-4, IL-1β, TNF-α (TNF), and TNF-β (LT) secretion were measured in response to stimulation with 1, 3, or 10 μg/mL GMA, or 1, 3, or 10 μg/mL COP, as well as a no-antigen control and an MBP control, in the presence of autologous EBV-transformed B-LCL.

[1] = 222-1C5, 1 μg/mL, 24 hours after Day 56 restimulation
[2] = 222-1C5, 3 μg/mL, 24 hours after Day 56 restimulation
[3] = 222-1C5, 10 μg/mL, 24 hours after Day 56 restimulation
[4] = 222-1C5, 10 μg/mL, Day 34 supernatants
[5] = 222-1H12, 10 μg/mL, Day 34 supernatants
[6] = 222-2B8, 1 μg/mL, 24 hours after Day 56 restimulation
[7] = 222-2B8, 3 μg/mL, 24 hours after Day 56 restimulation
[8] = 222-2B8, 10 μg/mL, 24 hours after Day 56 restimulation
[9] = 222-2D2, 10 μg/mL, Day 34 supernatants
[10] = 222-2D8, 10 μg/mL, Day 34 supernatants
[11] = 222-2E1, 1 μg/mL, 24 hours after Day 56 restimulation
[12] = 222-2E1, 3 μg/mL, 24 hours after Day 56 restimulation
[13] = 222-2E1, 10 μg/mL, 24 hours after Day 56 restimulation
[14] = 222-B11 (so in the source), 1 μg/mL, 24 hours after Day 56 restimulation
[15] = 222-B11 (so in the source), 3 μg/mL, 24 hours after Day 56 restimulation
[16] = 222-B11 (so in the source), 10 μg/mL, 24 hours after Day 56 restimulation

Substance: glatiramer acetate [COP]
- IFN-γ [1]: 158 pg/mL
- IL-2 [1]: 0 pg/mL
- IL-5 [1]: 0 pg/mL
- IL-10 [1]: 11 pg/mL
- IL-13 [1]: 129 pg/mL
- IL-22 [1]: 0 pg/mL
- TNF-α [1]: 11 pg/mL
- IFN-γ [2]: 256 pg/mL
- IL-2 [2]: 0 pg/mL
- IL-5 [2]: 0 pg/mL
- IL-10 [2]: 16 pg/mL
- IL-13 [2]: 254 pg/mL
- IL-22 [2]: 32 pg/mL
- TNF-α [2]: 42 pg/mL
- IFN-γ [3]: 585 pg/mL
- IL-2 [3]: 40 pg/mL
- IL-5 [3]: 0 pg/mL
- IL-10 [3]: 49 pg/mL
- IL-13 [3]: 837 pg/mL
- IL-22 [3]: 42 pg/mL
- TNF-α [3]: 42 pg/mL
- IFN-γ [4]: 416.83 pg/mL
- IL-1β [4]: <= 0 pg/mL
- IL-2 [4]: <= 0 pg/mL
- IL-5 [4]: 56.39 pg/mL
- IL-8 [4]: <= 0 pg/mL
- IL-10 [4]: 50.58 pg/mL
- TNF-α [4]: <= 0 pg/mL
- TNF-β [4]: 15.34 pg/mL
- IFN-γ [5]: 3626 pg/mL
- IL-1β [5]: 59 pg/mL
- IL-2 [5]: 0 pg/mL
- IL-4 [5]: 0 pg/mL
- IL-5 [5]: 398 pg/mL
- IL-10 [5]: 240 pg/mL
- TNF-α [5]: 22 pg/mL
- TNF-β [5]: 98 pg/mL
- IFN-γ [6]: 8.46 pg/mL
- IL-2 [6]: 0 pg/mL
- IL-5 [6]: 0 pg/mL
- IL-10 [6]: 2.99 pg/mL
- IL-13 [6]: 204.31 pg/mL
- IL-22 [6]: 83.01 pg/mL
- TNF-α [6]: 0 pg/mL
- IFN-γ [7]: 39.91 pg/mL
- IL-2 [7]: 19.65 pg/mL
- IL-5 [7]: 30.3 pg/mL
- IL-10 [7]: 2.83 pg/mL
- IL-13 [7]: 1028.23 pg/mL
- IL-22 [7]: 77.82 pg/mL
- TNF-α [7]: 0 pg/mL
- IFN-γ [8]: 119.12 pg/mL
- IL-2 [8]: 0 pg/mL
- IL-5 [8]: 314.77 pg/mL
- IL-10 [8]: 36.16 pg/mL
- IL-13 [8]: 2825.8 pg/mL
- IL-22 [8]: 143.57 pg/mL
- TNF-α [8]: 91.29 pg/mL
- IFN-γ [9]: 120 pg/mL
- IL-1β [9]: 130.9 pg/mL
- IL-2 [9]: 210.47 pg/mL
- IL-5 [9]: 38.13 pg/mL
- IL-8 [9]: 0.85 pg/mL
- IL-10 [9]: 45.09 pg/mL
- TNF-α [9]: 30.87 pg/mL
- TNF-β [9]: 23.15 pg/mL
- IL-4, IL-6, or IL-12 detected (222-2D8, 222-1H12, 222-1C5, 222-2D2, Day 34 supernatants): Little or no
- IFN-γ [10]: 3296 pg/mL
- IL-1β [10]: 2535 pg/mL
- IL-2 [10]: 0 pg/mL
- IL-4 [10]: 0 pg/mL
- IL-5 [10]: 1587 pg/mL
- IL-10 [10]: 100 pg/mL
- TNF-α [10]: 493 pg/mL
- TNF-β [10]: 267 pg/mL
- IFN-γ [11]: 53.73 pg/mL
- IL-2 [11]: 26.46 pg/mL
- IL-5 [11]: 0 pg/mL
- IL-10 [11]: 5.3 pg/mL
- IL-13 [11]: 165.79 pg/mL
- IL-22 [11]: 72.54 pg/mL
- TNF-α [11]: 25.28 pg/mL
- IFN-γ [12]: 163.61 pg/mL
- IL-2 [12]: 40.39 pg/mL
- IL-5 [12]: 0 pg/mL
- IL-10 [12]: 12.19 pg/mL
- IL-13 [12]: 1037.93 pg/mL
- IL-22 [12]: 40.37 pg/mL
- TNF-α [12]: 0 pg/mL
- IFN-γ [13]: 405.26 pg/mL
- IL-2 [13]: 0 pg/mL
- IL-5 [13]: 106.24 pg/mL
- IL-10 [13]: 22 pg/mL
- IL-13 [13]: 2046.94 pg/mL
- IL-22 [13]: 60.95 pg/mL
- TNF-α [13]: 333.22 pg/mL
- IFN-γ [14]: 0.65 pg/mL
- IL-2 [14]: 63.02 pg/mL
- IL-5 [14]: 0 pg/mL
- IL-10 [14]: 0 pg/mL
- IL-13 [14]: 47.69 pg/mL
- IL-22 [14]: 69.37 pg/mL
- TNF-α [14]: 0 pg/mL
- IFN-γ [15]: 0 pg/mL
- IL-2 [15]: 0 pg/mL
- IL-5 [15]: 0 pg/mL
- IL-10 [15]: 0 pg/mL
- IL-13 [15]: 105.51 pg/mL
- IL-22 [15]: 45.67 pg/mL
- TNF-α [15]: 0 pg/mL
- IFN-γ [16]: 47.35 pg/mL
- IL-2 [16]: 0 pg/mL
- IL-5 [16]: 119 pg/mL
- IL-10 [16]: 11.27 pg/mL
- IL-13 [16]: 1839.63 pg/mL
- IL-22 [16]: 19.45 pg/mL
- TNF-α [16]: 13.51 pg/mL
- IFN-γ production (Line 105 (so in the source), Table 14 = 222-1C5, after appropriate dilution of supernatants): comparable amounts
